Patent publication US20040102524A1, “Method of treatment” (priority 2001, published 2004)

System: uric acid levels
Test: Clinical data for reduction of uric acid levels in human volunteers
Assay type: in vivo
Set-up: Mean uric acid 24 hr. after dose: unit not given here
Conditions: for mean uric acid blood level reduced by: 24 hours after administration vs baseline; for % at 24 hrs. (mean blood level of uric acid at 24 hours after administration as a percentage of the baseline level) / Mean uric acid 24 hr. after dose: oral tablets; for Mean uric acid 24 hr. after dose: plasma
Experimental: Test subjects were orally administered tablets containing N-propanesulfonyl-6-[N-(5-bromo-2-(cyclopropylmethoxy)benzyl)-N-ethylamino]pyridazine-3-carboxamide, or a matching placebo was administered orally as tablets, with 200 mL of distilled water. The subjects were directed to remain semi-recumbent for six hours after dosing. A 4.9 mL sample of blood was taken into a tube containing lithium heparin anticoagulant, and plasma was separated by centrifugation for the clinical chemistry analysis at the pretrial medical examinations, pre-dose, 6 hours and 24 hours after dosing on each trial day. Concentrations of the uric acid were determined by standard analytical techniques.
The listed percentages represent mean blood level of uric acid at 24 hours after administration of the test substance (active compound or placebo) as a percentage of the baseline uric acid level measured prior to administration. […] In particular at a dose of 400 mg the mean uric acid blood level is reduced by 29%. Doses of 800 mg and 1600 mg likewise reduce blood levels of uric acid by 33% and 42% respectively.

## CCCS(=O)(=O)NC(=O)c1ccc(N(CC)Cc2cc(Br)ccc2OCC2CC2)nn1 [N-propanesulfonyl-6-[N-(5-bromo-2-(cyclopropylmethoxy)benzyl)-N-ethylamino]pyridazine-3-carboxamide]
Dose of 400 mg
  mean uric acid blood level reduced by: 29%
Dose of 800 mg
  mean uric acid blood level reduced by: 33%
Dose of 1600 mg
  mean uric acid blood level reduced by: 42%
Dose 1 mg
  % at 24 hrs. (mean blood level of uric acid at 24 hours after administration as a percentage of the baseline level): 98.8%
Dose 1 mg, n=4
  Mean uric acid 24 hr. after dose: 280
Dose 5 mg
  % at 24 hrs. (mean blood level of uric acid at 24 hours after administration as a percentage of the baseline level): 90.1%
Dose 5 mg, n=4
  Mean uric acid 24 hr. after dose: 245
Dose 25 mg
  % at 24 hrs. (mean blood level of uric acid at 24 hours after administration as a percentage of the baseline level): 93.2%
Dose 25 mg, n=4
  Mean uric acid 24 hr. after dose: 237
Dose 100 mg
  % at 24 hrs. (mean blood level of uric acid at 24 hours after administration as a percentage of the baseline level): 90.0%
Dose 100 mg, n=4
  Mean uric acid 24 hr. after dose: 286
Dose 200 mg
  % at 24 hrs. (mean blood level of uric acid at 24 hours after administration as a percentage of the baseline level): 85.2%
Dose 200 mg, n=4
  Mean uric acid 24 hr. after dose: 268
Dose 400 mg
  % at 24 hrs. (mean blood level of uric acid at 24 hours after administration as a percentage of the baseline level): 70.6%
Dose 400 mg, n=4
  Mean uric acid 24 hr. after dose: 242
Dose 800 mg
  % at 24 hrs. (mean blood level of uric acid at 24 hours after administration as a percentage of the baseline level): 66.7%
Dose 800 mg, n=4
  Mean uric acid 24 hr. after dose: 237
Dose 1600 mg
  % at 24 hrs. (mean blood level of uric acid at 24 hours after administration as a percentage of the baseline level): 57.6%
Dose 1600 mg, n=6
  Mean uric acid 24 hr. after dose: 168
